10 compounds from ChEMBL document CHEMBL1201862, “PubChem BioAssay data set” (2004) can be followed below.

Test in all cases: DTP human tumour cell line panel, 48 h
Experiment [1] has as its system BT-549.
Experiment [2] deals with HOP-92.
In experiment [3] the test system is SF-268.
Experiment [4] relates to UACC-62.
Experiment [5] deals with MCF7.
For experiment [6], the system named is MDA-MB-231.
Experiment [7] relates to KM12.
The test system of experiment [8] is OVCAR-4.
The test system of experiment [9] is A549.
For experiment [10], the system named is MDA-MB-435.
The subject of experiment [11] is DU-145.
The test system of experiment [12] is CCRF-CEM.
The test system of experiment [13] is U-251.
Experiment [14] deals with SK-MEL-2.
Experiment [15] concerns RPMI-8226.
Experiment [16] deals with TK-10.
The subject of experiment [17] is PC-3.
The test system of experiment [18] is HL-60.
Experiment [19] relates to SF-295.
The test system of experiment [20] is SK-MEL-28.

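Following 48 hours of exposure in 96-well plates, responses at five concentrations were used to interpolate endpoints linearly. GI50 marks 50% less growth.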 The source made the active and inactive calls. No stated cut-off is given here; in the data, active = GI50 up to about 1.1 µM and inactive = higher.

A word on the GI50: it is the concentration giving 50% growth inhibition. On to `CCCCCCCCCCCCCCCC[N+](C)(C)Cc1ccc(F)cc1`, for which the GI50 in [1] was 2.37 µM (inactive); in [2] it was 1.27 µM (inactive); in experiment [3], 1.56 µM (inactive); in [4] it was 1.67 µM (inactive); in experiment [5] it was 1.61 µM (inactive); in [6], 1.32 µM (inactive). The GI50 was 1.26 µM (inactive) in [7]; 1.55 µM (inactive) in experiment [8]; 2.67 µM (inactive) in [9]; 1.84 µM (inactive) in experiment [10]; 3.68 µM (inactive) in [11]; 0.771 µM (active) in experiment [12]. The GI50 in experiment [13] is 1.43 µM (inactive); in experiment [14], 1.62 µM (inactive); in experiment [15], 1.06 µM (active); in [16], 1.48 µM (inactive); in [17] it was 1.11 µM (active); in experiment [18] it was 0.184 µM (active). The GI50 in [19] is 2.37 µM (inactive); in experiment [20], 3.08 µM (inactive).

In the case of `O=C1c2ccccc2-c2c1c1ccccc1c(=O)n2-c1ccccc1`, the GI50 was 14.4 µM (inactive) in experiment [1]; 26.9 µM (inactive) in experiment [2]; 9.1 µM (inactive) in experiment [3]; 11.1 µM (inactive) in experiment [4]; 19.3 µM (inactive) in experiment [5]; 9.66 µM (inactive) in experiment [6]. Further, the GI50 in experiment [7] was 14.6 µM (inactive); in experiment [8], 2.86 µM (inactive); in experiment [9] it was 13.1 µM (inactive); in experiment [10], > 100 µM (inactive); in [11], 59.7 µM (inactive); in experiment [12], > 100 µM (inactive). The GI50 was 9.18 µM (inactive) in experiment [13]; 20.4 µM (inactive) in experiment [14]; > 100 µM (inactive) in experiment [15]; 11.7 µM (inactive) in [16]; > 81.5 µM (inactive) in [17]; > 33 µM (inactive) in [18]. Further, the GI50 is 10.1 µM (inactive) in [19] and > 100 µM (inactive) in experiment [20].

Turning to `CN1CCCC(OC(=O)c2cc3cc(CCl)ccc3oc2=O)C1` (stereo not given), the GI50 was 21 µM (inactive) in experiment [1]; 15.7 µM (inactive) in [2]; 21.7 µM (inactive) in [3]; 17.3 µM (inactive) in experiment [4]; 20.4 µM (inactive) in experiment [5]; 21 µM (inactive) in experiment [6]. For the same compound, the GI50 in [7] is 24 µM (inactive); in experiment [8], 20.3 µM (inactive); in experiment [9], 29.8 µM (inactive); in [10] it was 18.9 µM (inactive); in experiment [11], 29.9 µM (inactive); in experiment [12] it was 19.1 µM (inactive). Besides, the GI50 in [13] was 14.9 µM (inactive); in [14], 17.6 µM (inactive); in [15] it was 29.4 µM (inactive); in [16] it was 18.9 µM (inactive); in experiment [17] it was 18.3 µM (inactive); in experiment [18], 2.07 µM (inactive). Besides, the GI50 in experiment [19] is 25.2 µM (inactive); in [20] it was 19.5 µM (inactive).

As for `Brc1ccc2c3c1[C@@H]1O[C@@H]1c1cccc(c1-3)[C@@H]1O[C@H]21`, the GI50 in experiment [1] was 21.1 µM (inactive); in experiment [2], 20.9 µM (inactive); in [3], 24.2 µM (inactive); in experiment [4], 17.2 µM (inactive); in [5], 9.08 µM (inactive); in experiment [6], 27.4 µM (inactive). Moreover, the GI50 was 16.9 µM (inactive) in experiment [7]; 17.9 µM (inactive) in [8]; 26.1 µM (inactive) in experiment [9]; 15 µM (inactive) in experiment [10]; 24.9 µM (inactive) in experiment [11]; 5.09 µM (inactive) in experiment [12]. Further, the GI50 in experiment [13] was 17.6 µM (inactive); in [14] it was 23.6 µM (inactive); in [15] it was 13.1 µM (inactive); in experiment [16], 41 µM (inactive); in [17], 23.6 µM (inactive); in [18], 19.6 µM (inactive). The results for the GI50 in experiment [19] and in [20] were 19.2 µM (inactive) and 17.6 µM (inactive), respectively.

Take `COc1cccc(CCn2c(N)c(-c3ccccc3)c3ccc([N+](=O)[O-])cc3c2=O)c1`: the GI50 in [1] is 1.61 µM (inactive); in experiment [2] it was 10.3 µM (inactive); in experiment [3] it was 16.2 µM (inactive); in experiment [4], 11.9 µM (inactive); in [5], 3.46 µM (inactive); in experiment [6], 8.45 µM (inactive). Also, the GI50 in experiment [7] was 4.36 µM (inactive); in experiment [8], 1.79 µM (inactive); in experiment [9] it was 9.62 µM (inactive); in experiment [10] it was 21.9 µM (inactive); in [11], 13.7 µM (inactive); in [12], 11.4 µM (inactive). Also, the GI50 was 9.29 µM (inactive) in experiment [13]; 16.7 µM (inactive) in experiment [14]; 0.499 µM (active) in experiment [15]; 2.07 µM (inactive) in experiment [16]; 9.53 µM (inactive) in [17]; 5.47 µM (inactive) in [18]. The results for the GI50 in [19] and in experiment [20] were 3.78 µM (inactive) and 17.5 µM (inactive), respectively.

Turning to `O=C(/C=C\c1ccc([N+](=O)[O-])cc1)c1ccccc(=O)c1O`, the GI50 is 1.72 µM (inactive) in experiment [1]; 0.256 µM (active) in experiment [2]; 0.977 µM (active) in experiment [3]; 1.14 µM (inactive) in [4]; 0.277 µM (active) in experiment [5]; 3.37 µM (inactive) in experiment [6]. The GI50 in [7] is 1.04 µM (active); in experiment [8], 2.47 µM (inactive); in [9], 0.51 µM (active); in experiment [10], 0.989 µM (active); in experiment [11], 2.11 µM (inactive); in [12], < 0.0319 µM (active). Besides, the GI50 is 1.01 µM (active) in experiment [13]; 1.89 µM (inactive) in experiment [14]; 0.682 µM (active) in experiment [15]; 2.49 µM (inactive) in experiment [16]; 1.95 µM (inactive) in [17]; 0.538 µM (active) in experiment [18]. Also, the values for the GI50 in [19] and in experiment [20] were 1.42 µM (inactive) and 1.41 µM (inactive), respectively.

Regarding `CCOC(=O)/C=C\[C@H]1OC(C)(C)O[C@H]1[C@H](O)[C@H]1COC(C)(C)O1`, the GI50 in experiment [1] is 22 µM (inactive); in experiment [2], 13.2 µM (inactive); in experiment [3], 25.4 µM (inactive); in experiment [4], 23.7 µM (inactive); in experiment [5] it was 20.8 µM (inactive); in [6] it was 17.6 µM (inactive). Also, the GI50 in experiment [7] is 77.3 µM (inactive); in experiment [8], 19.3 µM (inactive); in experiment [9], > 100 µM (inactive); in experiment [10], 17.3 µM (inactive); in experiment [11], > 100 µM (inactive); in experiment [12], 10.5 µM (inactive). In addition, the GI50 was 17.7 µM (inactive) in [13]; 22.3 µM (inactive) in [14]; 19.8 µM (inactive) in experiment [15]; 16.1 µM (inactive) in experiment [16]; 20.7 µM (inactive) in experiment [17]; 22.8 µM (inactive) in experiment [18]. Besides, the GI50 in [19] was > 100 µM (inactive); in experiment [20] it was 17.7 µM (inactive).

Consider `N=c1ccn2c(n1)OC1C(OP(=O)(O)O)C(CO)OC12` (stereo not given), for which the GI50 was > 100 µM (inactive) in experiment [1]; > 100 µM (inactive) in [2]; 99.5 µM (inactive) in experiment [3]; 10.4 µM (inactive) in [4]; 1.18 µM (inactive) in experiment [5]; > 100 µM (inactive) in experiment [6]. The GI50 in experiment [7] was > 100 µM (inactive); in [8], > 100 µM (inactive); in [9], 0.575 µM (active); in experiment [10], > 100 µM (inactive); in experiment [11] it was 7.31 µM (inactive); in experiment [12], 0.0467 µM (active). Also, the GI50 was > 57.8 µM (inactive) in [13]; > 100 µM (inactive) in [14]; > 100 µM (inactive) in [15]; > 100 µM (inactive) in [16]; > 100 µM (inactive) in [17]; 0.597 µM (active) in experiment [18]. The GI50 was 38.1 µM (inactive) in experiment [19] and > 83.4 µM (inactive) in [20].

For `O=C1C=CC(=O)c2c(O)c(N(CCCl)CCCl)c(Cl)c(O)c21`, the GI50 is 4.15 µM (inactive) in experiment [1]; 2.98 µM (inactive) in [2]; 5.46 µM (inactive) in experiment [3]; > 6.07 µM (inactive) in [4]; 5.07 µM (inactive) in [5]; 4.56 µM (inactive) in experiment [6]. The GI50 in [7] was 6.4 µM (inactive); in experiment [8], 4.49 µM (inactive); in experiment [9] it was > 9.71 µM (inactive); in experiment [10], 4.31 µM (inactive); in [11], > 8.63 µM (inactive); in experiment [12], 1.25 µM (inactive). For the same compound, the GI50 was 5.73 µM (inactive) in experiment [13]; 4.78 µM (inactive) in [14]; > 8.39 µM (inactive) in experiment [15]; 3.35 µM (inactive) in experiment [16]; 5.47 µM (inactive) in experiment [17]; > 6.05 µM (inactive) in experiment [18]. Further, the GI50 in experiment [19] is > 10 µM (inactive); in experiment [20], > 5.6 µM (inactive).

In the case of `CC(C)OC(=O)c1cc(NC(=S)OC(C)C)ccc1Cl`, the GI50 was 18.2 µM (inactive) in experiment [1]; 18.4 µM (inactive) in [2]; 26.9 µM (inactive) in experiment [3]; 16.1 µM (inactive) in experiment [4]; 20.9 µM (inactive) in experiment [5]; 15.3 µM (inactive) in experiment [6]. Besides, the GI50 is 13.8 µM (inactive) in experiment [7]; 23.9 µM (inactive) in experiment [8]; 25.2 µM (inactive) in [9]; 17.1 µM (inactive) in experiment [10]; 30.1 µM (inactive) in experiment [11]; 39.3 µM (inactive) in experiment [12]. The GI50 in [13] was 22.9 µM (inactive); in experiment [14] it was 22.4 µM (inactive); in [15] it was 24.6 µM (inactive); in [16] it was 22.8 µM (inactive); in experiment [17] it was 23.7 µM (inactive); in [18], 16.3 µM (inactive). The GI50 in experiment [19] is 18.5 µM (inactive); in experiment [20], 28.3 µM (inactive).
